# Read-outs that look alike come from different tables or passages of the source.
# Tests used:
# CCRF-CEM = test: XTT cytotoxicity assay, CCRF-CEM cells; type: cell-based, human; details: for IC50: Homo sapiens, CCRF-CEM
# Protocol: (§1) XTT assay following 72 h inhibition. CCRF-CEM is a human T-cell acute lymphoblastic leukemia cell line. The CCRF-CEM/VBL100, CCRF-CEM/VM1, and CCRF-CEM/Taxol cell lines all overexpress P-glycoprotein and display a multidrug resistance phenotype to MDR-associated oncolytics. (Chou et al. Proc. Natl. Acad. Sci. USA 98:8113, 2001; incorporated herein by reference).
# (§2) A typical experiment invovles culturing cells (e.g., CCRF-CEM) at an initial density of 2-5×10^4 cells per ml. They are maintained in a 5% CO2-humidified atmosphere at 37° C. in RPMI medium 1640 (GIBCO/BRL) containing penicillin (100 units/ml), streptomycin (100 μg/ml) (GIBCO/BRL), and 5% heat-inactivated fetal bovine serum. For cells that were grown in suspension (such as CCRF-CEM and its sublines), cytotoxicitiy is measured by using the 2,-3-bis(2-methoxy-4-nitro-5-sulfophenyl)-5 carboxanilide)-2H terazodium hydroxide (XTT)-microculture tetrazonium method in duplicate in 96-well microtiter plates. For both methods, the absorbance of each well is measured with a microplate reader (EL-340, Bio-Tek, Burlington, Vt.). Each run entails six or seven concentrations of the tested drugs. Dose-effect relationship data are analyzed with the median-effect plot.
# (§3) The CCRF-CEM human T cells, acute lymphoblastic leukemic cells, its teniposide-resistant subline (CCRF-CEM/VM1) and vinblastine-resistant subline (CCRF-CEM/VBL100) are obtained from W. T. Beck (University of Illinois, Chicago, Ill.).
# [1] = Stability on exposure to human plasma; type: in vitro ADME
# Description: (§4) See Chou et al. Proc. Natl. Acad. Sci. USA 98:8113, 2001, incorporated herein by reference, for details.
# (§5) However, the apparently disappointing murine in vivo results should be viewed in the context of reports that dEpoB itself evidenced a degree of bioinstability in murine plasma; yet had much longer plasma half-lives in higher organisms, including humans (Chou et al. J. Proc. Natl. Acad. Sci. USA 98:8113, 2001; incorporated herein by reference). The observed discrepancy in efficacy between mice and other mammals, including humans, has been ascribed to higher esterase levels in rodents.
# tubulin = test: Tubulin binding: formation of microtubules in the presence of the compounds; type: biochemical
# Description: Indeed, the microtubule stabilizing ability closely parallels the observed cytotoxicity data.
# [2] = system: human mammary carcinoma MX-1; test: Tumor xenograft in nude mice, 6 hr i.v. infusion; type: in vivo; details: as compared to control mice, MX-1 xenograft, listed as epothilone 490
# Protocol: Athymic nude mice bearing the nu/nu gene are typically used for tumor xenografts. Outbred, Swiss-background mice were obtained from Charles River Laboratories. Male mice 8 weeks or older weighing 22 g and up were used for most experiments. The drug was administered via the tail vein for 6 hr.—i.v. infusion. Each individual mouse was confined in a perforated Falcon polypropylene tube restrainer for drug administration. Tumor volume was assessed by measuring length×width×height (or width) using a caliper. The programmable Harvard PHD2000 syringe pump (Harvard Apparatus) with multi-track was used for i.v. infusion. All animal studies were conducted in accordance with the guidelines of the National Institutes of Health “Guide for the Care and Use of Animals” and the protocol approved by the Memorial Sloan-Kettering Cancer Center's Institutional Animal Care and Use Committee. In keeping with the policy of this committee for the humane treatment of tumor-bearing animals, mice were euthanized when tumors reached ≧10% of their total body weight.
# As depicted in FIGS. 14, 15, 16, and 17, Epo490 was tested in nude mice bearing human mammary carcinoma MX-1 following treatment with Epo490 or dEpoB (i.v. infusions for 6 hours). […] Tumor size and body weight were then measured using dosages of 30 mg/kg, 40 mg/kg or 50 mg/kg over 32 and 50 days.
# CCRF-CEM/Taxol = test: XTT cytotoxicity assay, taxol-resistant CCRF-CEM/Taxol cells; type: cell-based, human; details: for IC50: Homo sapiens, CCRF-CEM
# Protocol: as §1, §2
# [3] = Stability on exposure to murine plasma; type: in vitro ADME; details: as compared to dEpoB (FIG. 21)
# Description: as §4, §5
# CCRF-CEM/VBL100 = test: XTT cytotoxicity assay, vinblastine-resistant CCRF-CEM/VBL100 cells; type: cell-based, human; details: Homo sapiens, CCRF-CEM
# Protocol: as §1, §2, §3
# CCRF-CEM/VM1 = test: XTT cytotoxicity assay, teniposide-resistant CCRF-CEM/VM1 cells; type: cell-based, human; details: Homo sapiens, CCRF-CEM
# Protocol: as §1, §2, §3
compound,measurement,setting,value
"CC1=C/C[C@@H](/C(C)=C/c2csc(C)n2)OC(=O)C[C@H](O)C(C)(C)C(=O)[C@H](C)[C@@H](O)[C@@H](C)C\C=C\1 [Epo490, 10,11-dehydro-12,13-desoxyepothilone B]",activity in CCRF-CEM cell lines,"CCRF-CEM; Example 12, in words",demonstrated activity
same,IC50,"CCRF-CEM; Example 5 Table 1, 72 h inhibition, read-out: In vitro Cytotoxicities (IC50) CCRF-CEM(C)",25 nM
same,IC50,"CCRF-CEM; Example 9 table, read-out: Cell Growth Inhibition (IC50) CCRF-CEM",9 nM
same,IC50,"CCRF-CEM; Example 11 Table 2, XTT assay following 72-h inhibition, read-out: In Vitro Cytotoxicities (IC50) CCRF-CEM",25 nM
same,stability in human versus nude mice plasma,[1]; FIG. 21 legend,increased stability
same,degradation in human plasma,[1]; after more than 3 hours of exposure in human plasma,no measurable degradation
same,% Tubulin Binding,tubulin; Example 5 Table 1,89%
same,% Tubulin Binding,tubulin; Microtubules formed in the presence of dEpoB is defined as 100%,89%
same,inhibitory effect on the growth of the implanted tumors,[2],did not demonstrate a statistically significant inhibitory effect
same,activity in CCRF-CEM cell lines resistant to Taxol,"CCRF-CEM/Taxol; Example 12, in words",demonstrated activity
same,IC50,"CCRF-CEM/Taxol; Example 5 Table 1, 72 h inhibition, read-out: In vitro Cytotoxicities (IC50) C/Taxol",32 nM
same,IC50,"CCRF-CEM/Taxol; Example 9 table, read-out: Cell Growth Inhibition (IC50) CCRF-CEM/taxol",13 nM
same,IC50,"CCRF-CEM/Taxol; Example 11 Table 2, XTT assay following 72-h inhibition, read-out: In Vitro Cytotoxicities (IC50) CCRF-CEM/TAXOL",32 nM
same,degradation in murine plasma,[3],faster degradation
same,IC50,"CCRF-CEM/VBL100; Example 5 Table 1, 72 h inhibition, read-out: In vitro Cytotoxicities (IC50) C/VBL100",91 nM
same,IC50,"CCRF-CEM/VBL100; Example 9 table, read-out: Cell Growth Inhibition (IC50) CCRF-CEM/VBL",23 nM
same,IC50,"CCRF-CEM/VBL100; Example 11 Table 2, XTT assay following 72-h inhibition, read-out: In Vitro Cytotoxicities (IC50) CCRF-CEM/VBL100",91 nM
same,IC50,"CCRF-CEM/VM1; Example 5 Table 1, 72 h inhibition, read-out: In vitro Cytotoxicities (IC50) C/VM1",35 nM
same,IC50,"CCRF-CEM/VM1; Example 11 Table 2, XTT assay following 72-h inhibition, read-out: In Vitro Cytotoxicities (IC50) CCRF-CEM/VMI",35 nM

# Reference: US20030176368A1, “Synthesis of epothilones, intermediates thereto and analogues thereof” (priority 2001, published 2003)
